The values that follow come from ChEMBL document CHEMBL1255507, “Azole derivatives as histamine H3 receptor antagonists, part 2: C-C and C-S coupled heterocycles” (Bioorg Med Chem Lett, 2010).

In the first test the target is T1, Histamine H3 receptor (Homo sapiens, UniProt Q9Y5N1). Briefly: Displacement of [3H]Methylhistamine from human histamine H3 receptor expressed in HEK293 cells. Type of test: cell-based.
T1 sequence (Q9Y5N1 whole entry): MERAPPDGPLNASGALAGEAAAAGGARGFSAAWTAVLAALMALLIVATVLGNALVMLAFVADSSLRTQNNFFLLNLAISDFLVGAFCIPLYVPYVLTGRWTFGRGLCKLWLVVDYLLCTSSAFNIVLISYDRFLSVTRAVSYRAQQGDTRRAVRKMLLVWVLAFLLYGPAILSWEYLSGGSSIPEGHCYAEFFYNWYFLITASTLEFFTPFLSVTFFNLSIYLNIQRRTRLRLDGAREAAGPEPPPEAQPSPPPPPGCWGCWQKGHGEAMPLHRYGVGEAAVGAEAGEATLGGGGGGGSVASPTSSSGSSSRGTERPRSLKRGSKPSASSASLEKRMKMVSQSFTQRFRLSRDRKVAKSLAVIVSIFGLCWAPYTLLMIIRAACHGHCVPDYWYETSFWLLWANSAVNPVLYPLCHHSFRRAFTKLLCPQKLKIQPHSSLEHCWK
For the molecule `c1cc(-c2nc(SCCCN3CCCCC3)nn2CCCN2CCCCC2)ccn1`, the Ki (usually a dissociation constant, usually derived from enzyme kinetics or from competition with a known ligand) stood at 18 nM.

The next test deals with T1, Histamine H3 receptor. Briefly: Displacement of [125I]Iodoproxyfan from human histamine H3 receptor expressed in HEK293 cells. It is filed as cell-based. (In general: Displacement assays read how much labelled ligand stays bound in the presence of the test substance.)
Consider `CC(=O)c1sc(SCCCN2CCCCC2)nc1C`, for which the Ki was above 1000 nM.
Same read-out and setting: to `c1ccc(-c2cnc(CCCCN3CCCCC3)o2)cc1` belongs 63 nM; to `c1cncc(-c2noc(CCCCN3CCCCC3)n2)c1`, 110 nM; to `c1ccc(-c2nc(SCCCN3CCCCC3)sc2-c2ccccc2)cc1`, 7.4 nM.
Same read-out and setting: to `c1ccc(-c2nc(SCCCN3CCCCC3)oc2-c2ccccc2)cc1` belongs 32 nM; to `c1cc(-c2nnc(SCCCN3CCCCC3)o2)ccn1`, 187 nM.
The same measure, in the same setting: to `C1CCN(CCCOc2nc3c(s2)CN(CCCN2CCCCC2)CC3)CC1` belongs 20 nM.
